We go through 38 compounds from patent publication US11312712B2, “Azabenzimidazoles and their use as AMPA receptor modulators” (Janssen Pharmaceutica NV, priority 2015, dated 2022).

The structures appear in SMILES notation.

Chain of GluA1o-γ8 (GRIA1o-CACNG8 fusion construct) (P42261 other isoform, or with tags, fused parts or gaps): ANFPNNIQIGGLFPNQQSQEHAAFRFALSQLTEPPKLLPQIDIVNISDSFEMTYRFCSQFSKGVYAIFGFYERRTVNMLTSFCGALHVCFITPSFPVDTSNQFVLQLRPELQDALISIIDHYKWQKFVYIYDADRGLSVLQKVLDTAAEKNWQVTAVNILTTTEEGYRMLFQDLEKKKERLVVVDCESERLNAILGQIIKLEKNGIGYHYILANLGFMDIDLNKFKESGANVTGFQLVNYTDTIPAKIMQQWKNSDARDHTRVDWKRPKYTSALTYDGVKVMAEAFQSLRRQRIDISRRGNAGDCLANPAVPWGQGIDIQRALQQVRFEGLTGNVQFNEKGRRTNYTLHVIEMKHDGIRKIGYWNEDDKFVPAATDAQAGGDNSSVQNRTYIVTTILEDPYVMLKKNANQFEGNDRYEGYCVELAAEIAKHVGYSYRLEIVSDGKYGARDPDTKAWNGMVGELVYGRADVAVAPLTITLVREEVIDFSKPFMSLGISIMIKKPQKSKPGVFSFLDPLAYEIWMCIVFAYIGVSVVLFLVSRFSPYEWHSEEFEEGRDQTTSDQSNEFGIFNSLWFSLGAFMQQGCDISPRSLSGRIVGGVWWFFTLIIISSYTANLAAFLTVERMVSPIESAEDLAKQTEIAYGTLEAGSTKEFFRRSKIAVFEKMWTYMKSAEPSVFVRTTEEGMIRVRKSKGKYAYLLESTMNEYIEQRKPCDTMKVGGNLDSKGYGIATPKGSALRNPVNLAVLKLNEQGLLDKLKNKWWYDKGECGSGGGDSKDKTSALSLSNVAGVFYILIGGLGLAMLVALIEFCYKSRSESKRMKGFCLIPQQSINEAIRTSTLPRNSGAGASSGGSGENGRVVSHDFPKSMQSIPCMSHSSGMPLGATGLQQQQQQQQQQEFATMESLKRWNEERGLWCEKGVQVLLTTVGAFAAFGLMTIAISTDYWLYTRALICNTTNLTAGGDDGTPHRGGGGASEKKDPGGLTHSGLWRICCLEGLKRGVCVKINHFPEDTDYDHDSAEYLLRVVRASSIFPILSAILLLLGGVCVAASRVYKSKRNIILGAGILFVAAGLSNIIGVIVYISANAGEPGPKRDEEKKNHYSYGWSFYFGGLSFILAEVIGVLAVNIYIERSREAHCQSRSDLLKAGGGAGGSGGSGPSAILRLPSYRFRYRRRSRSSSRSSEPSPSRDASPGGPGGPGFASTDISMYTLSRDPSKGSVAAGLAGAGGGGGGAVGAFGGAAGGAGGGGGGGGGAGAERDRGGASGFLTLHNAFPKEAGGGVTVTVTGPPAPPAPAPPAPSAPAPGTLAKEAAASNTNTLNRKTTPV

The target of this test is GluA1o-γ8 (GRIA1o-CACNG8 fusion construct) (Homo sapiens (Human), UniProt P42261+Q8WXS5). Kind of test: Calcium flux assay (FLIPR), inhibition of TARP γ8 dependent AMPA receptor activity. The following applies: GluA1o-γ8 (GRIA1o-CACNG8 fusion) in HEK293 cells, calcium flux after 15 μM glutamate. Type of test: cell-based. In outline:
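HEK293 cells stably expressing a 1:1 GRIA1o–CACNG8 fusion were loaded with Calcium-5/6 dye plus compound in pH 7.4 HEPES-buffered saline. FLIPR calcium flux after 15 μM glutamate was normalized to untreated and 10 μM CP465022 controls, and a four-parameter logistic fit gave pIC50.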
(In general: Calcium flux is commonly read through the fluorescence of an indicator in the cells.)
As to `O=c1[nH]c2ccc(-n3c(-c4ccc(F)cc4)nc4ccc(C(F)(F)F)nc43)cc2s1` [Example 16, 6-[2-(4-Fluorophenyl)-5-(trifluoromethyl)imidazo[4,5-b]pyridin-3-yl]-3H-1,3-benzothiazol-2-one], the IC50 is 0.631 nM. For the compound `CC(C)NC(=O)c1nc2ccc(C(F)(F)F)nc2n1-c1ccc2[nH]ncc2c1` [Example 172, 3-(1H-Indazol-5-yl)-N-isopropyl-5-(trifluoromethyl)imidazo[4,5-b]pyridine-2-carboxamide], the IC50 is 3980 nM. On to `CC(C)c1nc2ccc(C(F)(F)F)nc2n1-c1cnc2c(c1)CC(=O)N2` [Example 301, 5-[2-Isopropyl-5-(trifluoromethyl)imidazo[4,5-b]pyridin-3-yl]-1,3-dihydropyrrolo[2,3-b]pyridin-2-one], for which the IC50 is 31.6 nM. As for `FC(F)(F)Cc1nc2ccc(C(F)(F)F)nc2n1-c1cc(Cl)c2[nH]ncc2c1` [Example 416, 3-(7-Chloro-1H-indazol-5-yl)-2-(2,2,2-trifluoroethyl)-5-(trifluoromethyl)-3H-imidazo[4,5-b]pyridine], the IC50 was 0.501 nM. Consider `O=C(NC1CC1)c1nc2ccc(C(F)(F)F)nc2n1-c1ccc2[nH]ncc2c1` [Example 128, N-Cyclopropyl-3-(1H-indazol-5-yl)-5-(trifluoromethyl)imidazo[4,5-b]pyridine-2-carboxamide], for which the IC50 was 501 nM. The value for `FC(F)(F)c1ccc2nc(C(F)(F)F)n(-c3cc(-c4ccccc4)c4[nH]ncc4c3)c2n1` [Example 188, 3-(7-Phenyl-1H-indazol-5-yl)-2,5-bis(trifluoromethyl)-3H-imidazo[4,5-b]pyridine] was 316 nM.

In the case of `FC(F)c1ccc2nc(C3CC3)n(-c3ccc4[nH]ncc4c3)c2n1` [Example 321, 2-Cyclopropyl-5-(difluoromethyl)-3-(1H-indazol-5-yl)imidazo[4,5-b]pyridine], the IC50 was 1 nM. The value for `CC(C)(F)c1nc2ccc(C(F)(F)F)nc2n1-c1cc(Cl)c2[nH]ncc2c1` [Example 254, 3-(7-Chloro-1H-indazol-5-yl)-2-(1-fluoro-1-methyl-ethyl)-5-(trifluoromethyl)imidazo[4,5-b]pyridine] was 0.0631 nM; that for `O=c1[nH]c2ccc(-n3c(C4CCCC4)nc4ccc(C(F)(F)F)nc43)cc2s1` [Example 39, 6-[2-Cyclopentyl-5-(trifluoromethyl)imidazo[4,5-b]pyridin-3-yl]-3H-1,3-benzothiazol-2-one] was 0.2 nM.

On to `N#Cc1n[nH]c2ccc(-n3c(C(F)(F)F)nc4ccc(C(F)(F)F)nc43)cc12` [Example 295, 5-[2,5-Bis(trifluoromethyl)imidazo[4,5-b]pyridin-3-yl]-1H-indazole-3-carbonitrile], for which the IC50 was 39.8 nM. For the compound `FC(F)c1nc2ccc(C(F)(F)F)nc2n1-c1cc(Cl)c2[nH]ncc2c1` [Example 277, 3-(7-Chloro-1H-indazol-5-yl)-2-(difluoromethyl)-5-(trifluoromethyl)imidazo[4,5-b]pyridine], the IC50 was 0.0631 nM. For the compound `FC(F)(F)c1ccc2nc(-c3cccs3)n(-c3ccc4[nH]ncc4c3)c2n1` [Example 91, 3-(1H-Indazol-5-yl)-2-(2-thienyl)-5-(trifluoromethyl)imidazo[4,5-b]pyridine], the IC50 is 3.98 nM. Consider `Cc1cc(-n2c(C(F)(F)F)nc3ccc(/C=C/CO)nc32)cc2cn[nH]c12` [Example 222, (E)-3-(3-(7-Methyl-1H-indazol-5-yl)-2-(trifluoromethyl)-3H-imidazo[4,5-b]pyridin-5-yl)prop-2-en-1-ol], for which the IC50 is 31.6 nM. For the compound `Cc1nc2ccc(C(F)(F)F)nc2n1-c1ccc2[nH]c(=O)sc2c1` [Example 46, 6-[2-Methyl-5-(trifluoromethyl)imidazo[4,5-b]pyridin-3-yl]-3H-1,3-benzothiazol-2-one], the IC50 is 6.31 nM. On to `CC(C)c1cc2ccc(C(F)(F)F)nc2n1-c1cnc2[nH]ncc2c1` [Example 376, 5-[2-Isopropyl-6-(trifluoromethyl)pyrrolo[2,3-b]pyridin-1-yl]-1H-pyrazolo[3,4-b]pyridine], for which the IC50 is 0.0501 nM. With `Cc1cc(-n2c(-c3ccnc(F)c3)nc3ccc(C(F)F)nc32)cc2cn[nH]c12` [Example 263, 5-(Difluoromethyl)-2-(2-fluoro-4-pyridyl)-3-(7-methyl-1H-indazol-5-yl)imidazo[4,5-b]pyridine], the half-inhibitory concentration (IC50) is 0.158 nM. Consider `CSc1ccc2nc(-c3ccc(F)cc3)n(-c3ccc4[nH]ccc4c3)c2n1` [Example 155, 2-(4-Fluorophenyl)-3-(1H-indol-5-yl)-5-methylsulfanyl-imidazo[4,5-b]pyridine], for which the IC50 was 39.8 nM. As for `Cc1ccc2nc(-c3ccccc3)n(-c3ccc4[nH]ncc4c3)c2n1` [Example 3, 3-(1H-Indazol-5-yl)-5-methyl-2-phenyl-imidazo[4,5-b]pyridine], the IC50 was 0.794 nM.

As to `O=C1Cc2cc(-n3c(-c4ccc(F)cc4)nc4ccc(F)nc43)ccc2N1` [Example 37, 5-[5-Fluoro-2-(4-fluorophenyl)imidazo[4,5-b]pyridin-3-yl]indolin-2-one], the IC50 is 6.31 nM.

In the case of `CN(C)C(=O)c1nc2ccc(C(F)(F)F)nc2n1-c1ccc2[nH]ncc2c1` [Example 126, 3-(1H-Indazol-5-yl)-N,N-dimethyl-5-(trifluoromethyl)imidazo[4,5-b]pyridine-2-carboxamide], the IC50 was 794 nM. With `Cc1nc2ccc(C(F)(F)F)nc2n1-c1ccc2[nH]ncc2c1` [Example 98, 3-(1H-Indazol-5-yl)-2-methyl-5-(trifluoromethyl)imidazo[4,5-b]pyridine], the IC50 was 63.1 nM. Turning to `Cc1cc(N2CCOCC2)c2nc(C3CCC3)n(-c3ccc4[nH]c(=O)sc4c3)c2n1` [Example 133, 6-(2-Cyclobutyl-5-methyl-7-morpholino-imidazo[4,5-b]pyridin-3-yl)-3H-1,3-benzothiazol-2-one], the half-inhibitory concentration (IC50) was 1 nM. With `COc1nc2ccc(C(F)(F)F)nc2n1-c1cc(C)c2[nH]ncc2c1` [Example 241, 2-Methoxy-3-(7-methyl-1H-indazol-5-yl)-5-(trifluoromethyl)imidazo[4,5-b]pyridine], the IC50 was 0.398 nM. With `O=C1Cc2cc(-n3c(C(F)F)nc4ccc(C(F)(F)F)nc43)cc(Cl)c2N1` [Example 272, 7-Chloro-5-[2-(difluoromethyl)-5-(trifluoromethyl)imidazo[4,5-b]pyridin-3-yl]indolin-2-one], the IC50 is 0.2 nM. As for `O=C1Cc2cc(-n3c(C(F)(F)F)nc4ccc(C(F)(F)F)nc43)ccc2N1` [Example 88, 5-[2,5-Bis(trifluoromethyl)imidazo[4,5-b]pyridin-3-yl]indolin-2-one], the IC50 is 1.58 nM. For the compound `CC(C)c1nc2ccc(C(F)(F)F)nc2n1-c1ccc2c(c1)CC(=O)N2` [Example 38, 5-[2-Isopropyl-5-(trifluoromethyl)imidazo[4,5-b]pyridin-3-yl]indolin-2-one], the IC50 was 1 nM. As for `FC(F)(F)c1ccc2nc([C@H]3C[C@@H](F)C3)n(-c3cc(Cl)c4[nH]ncc4c3)c2n1` [Example 248, 3-(7-Chloro-1H-indazol-5-yl)-2-(3-fluorocyclobutyl)-5-(trifluoromethyl)imidazo[4,5-b]pyridine], the IC50 was 0.158 nM. For `Cc1ccc2nc(C(C)C)n(-c3ccc4c(c3)CC(=O)N4)c2n1` [Example 84, 5-(2-Isopropyl-5-methyl-imidazo[4,5-b]pyridin-3-yl)indolin-2-one], the concentration for half-maximal inhibition (IC50) is 63.1 nM. Turning to `FC(F)(F)c1nc2ccc(C3CCC3)nc2n1-c1ccc2[nH]ncc2c1` [Example 208, 5-Cyclobutyl-3-(1H-indazol-5-yl)-2-(trifluoromethyl)imidazo[4,5-b]pyridine], the IC50 is 0.158 nM. For the compound `FC(F)(F)c1nc2cccnc2n1-c1cc(Cl)c2[nH]ncc2c1` [Example 199, 3-(7-Chloro-1H-indazol-5-yl)-2-(trifluoromethyl)imidazo[4,5-b]pyridine], the IC50 was 2 nM. Then `CC[C@@H](C)c1nc2ccc(C(F)(F)F)nc2n1-c1cc(Cl)c2[nH]ncc2c1` (single isomer, unassigned) [Example 404, (*R)-2-(sec-Butyl)-3-(7-chloro-1H-indazol-5-yl)-5-(trifluoromethyl)-3H-imidazo[4,5-b]pyridine], with 0.1 nM; and `O=C1Cc2cc(-n3c(C4CCC4)nc4ccc(C(F)(F)F)nc43)ccc2N1` [Example 49, 5-[2-Cyclobutyl-5-(trifluoromethyl)imidazo[4,5-b]pyridin-3-yl]indolin-2-one], with 0.316 nM; and `Cc1cc(-n2c(C)cc3ccc(C(F)F)nc32)cc2c1NC(=O)C2` [Example 421, 5-(6-(Difluoromethyl)-2-methyl-1H-pyrrolo[2,3-b]pyridin-1-yl)-7-methylindolin-2-one], with 0.0794 nM. For the compound `Cc1cc(-n2ccc3ccc(C(F)(F)F)nc32)cc2cn[nH]c12` [Example 377, 1-(7-Methyl-1H-indazol-5-yl)-6-(trifluoromethyl)pyrrolo[2,3-b]pyridine], the IC50 was 2 nM. For the compound `O=C1Cc2cc(-n3c(C4CCCC4)nc4ccc(C(F)(F)F)nc43)ccc2N1` [Example 60, 5-[2-Cyclopentyl-5-(trifluoromethyl)imidazo[4,5-b]pyridin-3-yl]indolin-2-one], the IC50 is 2 nM. Then `O=c1[nH]c2ccc(-n3c(C(F)F)nc4ccc(C(F)(F)F)nc43)cc2o1` [Example 235, 6-[2-(Difluoromethyl)-5-(trifluoromethyl)imidazo[4,5-b]pyridin-3-yl]-3H-1,3-benzoxazol-2-one], with 63.1 nM; and `FC(F)(F)c1ccc2nc(C3CCCC3)n(-c3ccc4[nH]ncc4c3)c2n1` [Example 104, 2-Cyclopentyl-3-(1H-indazol-5-yl)-5-(trifluoromethyl)imidazo[4,5-b]pyridine], with 5.01 nM; and `O=c1[nH]c2ccc(-n3c(-c4ccc(F)cc4)nc4ccc(Cl)nc43)cc2s1` [Example 30, 6-[5-Chloro-2-(4-fluorophenyl)imidazo[4,5-b]pyridin-3-yl]-3H-1,3-benzothiazol-2-one], with 0.2 nM.

The IC50 is the midpoint of a concentration-inhibition curve.
